Experimental data: patent US9889087B2, “Intranasal delivery of β2-adrenergic receptor agonists for improving cognition in humans with down syndrome and compositions therefor” (priority 2014, dated 2018)
Converted amounts (≈) assume the structure as drawn. Read-outs that look alike come from different tables or passages of the source.

What was measured:
Ts65Dn and 2N mice [1] = settings: intranasal 2 mg per kg for 5 days
Source text: Mice were acclimated to handling for a period of two weeks before the onset of intranasal dosing. Acclimation helped to ensure a correct body position for maximum effectiveness of awake intranasal drug delivery. In addition, acclimation prevented the occurrence of anxiety reaction after dosing. Mice spent about 2-3 days on each of nine steps before progressing to the next step, depending upon the animal's comfort to handling. The mouse's stress level was used as a measure of progress. To do this, the mouse's movements, the amount and frequency of urination, defecation, trembling and biting were assessed.
7) The mouse was placed back on top of his cage for 2 min. and the entire process was repeated starting 2 min. after delivery of the first drop. All together the mouse received four drops of up to 6 μl each totaling a maximum volume of 24 μl of solution.
The training began on the 4th day of intranasal dosing.
The testing day was done on the 5th and final day of dosing.
The first trial for each mouse was done 3 hours post-intranasal dose.
6) The number of incorrect arm entries was quantified. Entries into the goal arm were not counted as errors, even if the platform was not located. An entry was considered to occur when all four legs of the mouse had entered the alley completely and the mouse was parallel to the alley walls. […]

Ts65Dn and 2N mice [2] = experiment: Cardiovascular and respiratory system monitoring (MouseOx vital signs); type: in vivo, mouse; settings: 2N and Ts65Dn mice
Procedure: Cardiovascular and Respiratory System Monitoring. […] The monitor was attached to a collar clip with an LED sensor to enable recordings in free-moving mice. To minimize stress before recording, the collar clip was attached to each animal. After five minutes, heart rate, respiratory rate, and oxygen saturation were recorded using MOUSEOX® 6.3.13 for 10 minutes.

Ts65Dn and 2N mice [3] = tested on: Ts65Dn and 2N mice
Procedure: b) Fear Conditioning. […] The fear conditioning tests were done using four FreezeScan chambers (Clever Sys) on days 4 and 5 after the start of the open field-testing. […] Four hours later, the mice were placed in the fear-conditioning chamber and their baseline activity was recorded for three minutes. At the end of this period, each mouse was exposed to five shocks (2 seconds each, 0.5 mA) with inter-trial intervals of 80 seconds. Twenty-four hours later, the mice were injected again, similar to the Training Day, and returned to the same fear-conditioning chamber for five minutes and their activity was recorded. Freezing was defined as a lack of movement for 3 frames.

[4] = in vivo; cited from earlier work
physchem = settings: water
Ts65Dn mice = settings: cited from earlier work; for contextual learning: earlier studies
Ts65Dn and 2N mice [5] = experiment: BrdU cell proliferation count in the DG; type: in vivo, mouse; settings: nadolol alone or nadolol + formoterol
Procedure: To identify proliferating cells, we used 5-bromo-2′-deoxyuridine (BrdU, Sigma). It was dissolved in PBS, filtered, and kept at 4° C. till use. After 15 days of treatment, each mouse was injected IP daily (50 mg/kg) with BrdU solution for 5 days. Thereafter, on day 21, all mice were anesthetized and transcardially perfused with ice-cold saline. The entire brain was immediately removed and the two hemispheres were separated. The left hemisphere was fixed overnight, cut, and stored. […] This was followed by incubation of sections in ABC.
Stereo-Investigator (MBF) was used to quantify the total number of BrdU-positive cells in the entire septo-temporal extent of DG. Following the outlining of the DG area at 4×, each positive profile was identified using a 100× oil objective. […] A Nanozoomer system (Hamamatsu 2.0 RS) was used to capture images of the entire slide in each case. High magnification images were captured using the Nanozoomer and stored.

Compound: COc1ccc(CC(C)NCC(O)c2ccc(O)c(NC=O)c2)cc1 (stereo not shown) [formoterol]
- spatial learning (Ts65Dn and 2N mice [1]): significant improvement
- effect on oxygen saturation (Ts65Dn and 2N mice [2]; formoterol together with nadolol): no significant effects
- effect on heart rate (Ts65Dn and 2N mice [2]; ANOVA treatment effect): No significant effects
- effect on respiratory rate (Ts65Dn and 2N mice [2]; ANOVA treatment effect): No significant effects
- contextual learning (Ts65Dn and 2N mice [3]; 2N mice): improvement
- contextual learning (Ts65Dn and 2N mice [3]; Ts65Dn mice, 6 months, vs nadolol only): significant improvement
- freezing behavior within first five minutes in context (Ts65Dn and 2N mice [3]; Ts65Dn mice, vs nadolol only): significant increase
- crossing of the blood brain barrier [4]: cross the blood brain barrier
- solubility (physchem): ~17.2 mg/mL (≈ 49.9 mM)

Compound: N[C@H](C(=O)O)[C@H](O)c1ccc(O)c(O)c1 [L-DOPS, L-threo-3,4-dihydroxyphenylserine]
- contextual learning (Ts65Dn mice): restored

Compound: CC(C)(C)NCC(O)COc1cccc2c1CC(O)C(O)C2 (stereo not shown) [nadolol]
- total number of BrdU-positive profiles in the DG (Ts65Dn and 2N mice [5]): 3,161.930±900

Compound: O=C(NCCNCC(O)COc1ccc(O)cc1)N1CCOCC1 (stereo not shown) [xamoterol]
- contextual learning (Ts65Dn mice): significantly improve
- spatial learning and/or hyperactivity (Ts65Dn mice; later studies): did not improve
